Source: the supplement of paper PMC13380429

Assays:
Conditions in all cases: 72 h
[1] = tested on: Caco-2; experiment: relative viability EC50 (midpoint between 100% and the lowest measured viability); higher = less toxic
[2] = tested on: HepG2; experiment: as above
[3] = tested on: U2OS; experiment: as above
[4] = tested on: Calu-3; experiment: as above
[5] = tested on: Vero E6; experiment: as above
[6] = tested on: Caco-2; experiment: drug sensitivity score (DSS) for viability; higher = more toxic; extreme values may be limits of the assay
[7] = tested on: HepG2; experiment: as above
[8] = tested on: U2OS; experiment: as above
[9] = tested on: Calu-3; experiment: as above
[10] = tested on: Vero E6; experiment: as above
[11] = tested on: Caco-2; experiment: cell viability relative to DMSO; higher = less toxic
[12] = tested on: HepG2; experiment: as above
[13] = tested on: U2OS; experiment: as above
[14] = tested on: Calu-3; experiment: as above
[15] = tested on: Vero E6; experiment: as above

| Structure (SMILES) | relative viability EC50 [1] | relative viability EC50 [2] | relative viability EC50 [3] | relative viability EC50 [4] | relative viability EC50 [5] | drug sensitivity score [6] | drug sensitivity score [7] | drug sensitivity score [8] | drug sensitivity score [9] | drug sensitivity score [10] | cell viability ([11]; 1 nM) | cell viability ([11]; 10 nM) | cell viability ([11]; 100 nM) | cell viability ([11]; 1000 nM) | cell viability ([11]; 10000 nM) | cell viability ([12]; 1 nM) | cell viability ([12]; 10 nM) | cell viability ([12]; 100 nM) | cell viability ([12]; 1000 nM) | cell viability ([12]; 10000 nM) | cell viability ([13]; 1 nM) | cell viability ([13]; 10 nM) | cell viability ([13]; 100 nM) | cell viability ([13]; 1000 nM) | cell viability ([13]; 10000 nM) | cell viability ([14]; 1 nM) | cell viability ([14]; 10 nM) | cell viability ([14]; 100 nM) | cell viability ([14]; 1000 nM) | cell viability ([14]; 10000 nM) | cell viability ([15]; 1 nM) | cell viability ([15]; 10 nM) | cell viability ([15]; 100 nM) | cell viability ([15]; 1000 nM) | cell viability ([15]; 10000 nM) |
| --- | --- | --- | --- | --- | --- | --- | --- | --- | --- | --- | --- | --- | --- | --- | --- | --- | --- | --- | --- | --- | --- | --- | --- | --- | --- | --- | --- | --- | --- | --- | --- | --- | --- | --- | --- |
| N=C1NC(=O)/C(=C/c2ccc(O)cc2)S1 [mirin] | > 10 µM | > 10 µM | > 10 µM | > 10 µM | > 10 µM | 0 | 0 | 0 | 0.1 | 0 | 95% | 97.8% | 101% | 97.6% | 96.2% | 98.3% | 91.1% | 95.2% | 98% | 96.8% | 95.3% | 101% | 97.5% | 99.6% | 97.9% | 89.9% | 105% | 94.8% | 93.4% | 87.8% | 99.2% | 96.2% | 96.5% | 93.3% | 104% |
| CC(=O)N[C@@H](C=O)[C@@H](O)[C@H](O)[C@H](O)CO [N-acetyl-D-glucosamine] | > 10 µM | > 10 µM | > 10 µM | > 10 µM | > 10 µM | 0 | 0 | 0 | 0 | 0 | 93.3% | 97.6% | 113% | 102% | 107% | 91% | 85.7% | 94% | 94.7% | 87.3% | 102% | 99.7% | 102% | 97.3% | 102% | 103% | 111% | 101% | 93% | 95.9% | 100% | 110% | 104% | 106% | 87.5% |
| COCCN1CCC(C(=O)NO)(S(=O)(=O)c2ccc(Oc3ccc(OC(F)(F)F)cc3)cc2)CC1 [SD-2590] | > 10 µM | > 10 µM | > 10 µM | > 10 µM | > 10 µM | 0 | 0 | 0 | 0.1 | 0 | 97.8% | 103% | 95.9% | 98.8% | 107% | 95.9% | 93.8% | 93.9% | 89% | 91.6% | 98.2% | 103% | 92.2% | 100% | 98.8% | 93.9% | 96.8% | 96.9% | 98.8% | 88.1% | 97.6% | 94% | 98.7% | 92.2% | 103% |
| CCCc1nn(C)c2c(=O)[nH]c(-c3cc(S(=O)(=O)N4CCN(C)CC4)ccc3OCC)nc12 [sildenafil] | > 10 µM | > 10 µM | > 10 µM | > 10 µM | > 10 µM | 0 | 0.3 | 0 | 0 | 0 | 93.7% | 86.3% | 93.8% | 84.6% | 93.9% | 96.7% | 104% | 99.4% | 102% | 81.8% | 99.3% | 98.3% | 101% | 99.9% | 103% | 106% | 94.6% | 105% | 91.8% | 129% | 98.3% | 111% | 95.1% | 101% | 96.1% |
| CCOC(=O)Nc1ccc2c(c1)N(C(=O)CN(CC)CC)c1ccccc1CC2 [CINPA-1] | > 10 µM | > 10 µM | > 10 µM | > 10 µM | > 10 µM | 0 | 0 | 0 | 0 | 0 | 103% | 96.1% | 100% | 100% | 92.2% | 97.7% | 106% | 99.1% | 96.7% | 93.7% | 105% | 102% | 99.5% | 97.6% | 99.1% | 109% | 99.6% | 99.5% | 91.9% | 107% | 95.2% | 106% | 96.6% | 100% | 91% |
| COc1ccc(CCN(C)CCCN2CCc3cc(OC)c(OC)cc3CC2=O)cc1OC [zatebradine] | > 10 µM | > 10 µM | > 10 µM | > 10 µM | > 10 µM | 0 | 0 | 0 | 0 | 0 | 97.2% | 90.5% | 92.9% | 99.6% | 94.4% | 105% | 99.4% | 100% | 103% | 97.7% | 101% | 94.5% | 99.1% | 97.6% | 97.6% | 97% | 100% | 92.9% | 105% | 94.2% | 94.1% | 98.4% | 93.4% | 96% | 88% |
| CSc1ccc(OCc2ncc([N+](=O)[O-])n2C)cc1 [fexinidazole] | > 10 µM | > 10 µM | > 10 µM | > 10 µM | > 10 µM | 0 | 0 | 0 | 0 | 0 | 106% | 104% | 105% | 96.7% | 96.9% | 92.7% | 85.9% | 104% | 105% | 88.4% | 98.3% | 103% | 99.7% | 97.1% | 98.5% | 100% | 98.5% | 78.6% | 101% | 97.9% | 103% | 101% | 99.7% | 101% | 97% |
